In patent publication US5270316A, “Condensed purine derivatives” (Kyowa Hakko Kogyo Co., Ltd., priority 1989, dated 1993):
Like-named read-outs stand apart in the source and are kept apart here.

How the values were obtained:
[1] = Acute toxicity, minimum lethal dose (oral, mice); type: in vivo; conditions: male dd-mice, mortality observed for seven days
Procedure: The compounds were orally administrated to male dd-mice weighing 20±1 g. Minimum lethal dose (MLD) was determined by observing the mortality for seven days after the administration.

[2] = Diuretic activity (oral, urine collected for 6 hours); type: in vivo, rat (Wistar male rats); conditions: Rattus norvegicus, rats; for response vs control in vivo at 6.25 mg/kg: 6.25 mg/kg oral; for response vs control in vivo at 25 mg/kg: 25 mg/kg oral; for response vs control in vivo at 1.6 mg/kg: 1.6 mg/kg oral
Procedure: Wistar male rats weighing 150 to 300 g were used after they were fasted for 18 hours. A test compound or saline (control) was orally administered to rats and urine was collected for 6 hours. The test was performed using 3 groups per the test compound, and each group consists of 3 animals. The urine was metered by a measuring cylinder and electrolytes (Na^+ and K^+) in the urine were assayed with a flame photometer (model […] manufactured by Hitachi Ltd.). Parameters in Table 3 are all expressed by relative value for control.

[3] = tested on: Glycerol-induced Renal Deficient Model; test: Renal protecting activity (glycerol-induced renal deficient model): serum creatinine and urea nitrogen; type: in vivo, rat (Wistar male rats); conditions: 10 mg/kg intraperitoneal, rats, 24 hours after glycerol injection, own control beside each compound; for Creatinine in serum, glycerol treated, test compound administrated: normal control 0.50; for Urea nitrogen in serum, glycerol treated, test compound administrated: normal control 15.2
Procedure: It is well known that subcutaneous or intramuscular administration of glycerol to rat induce acute renal insufficiency characterized by renal tubular disturbance [Can J. Physiol.
Wistar male rats (fasted both food and water for 18 hours) were used. A test compound or saline (control) was intraperitoneally administered (dose: 10 mg/kg) to rats. After 30 minutes rats were anesthesized with ether and the back skin was picked up and 0.8 ml/100 g of 50% glycerol was subcutaneously administered. 24 hours after the glycerol injection, the rats were anesthesized with ether and 5 ml of the blood was collected from the descending aorta. To obtain the serum, after allowing it to stand for 30 minutes or longer, the blood sample was centrifuged at 3000 rpm for 10 minutes. Creatinine in the serum sample was determined using autoanalyzer (AU510, Olympus) or clinical analysis kit of creatinine (Creatinine Test Wako; by Wako Pure Chemical Ind., Japan). Urea nitrogen in the serum was determined using autoanalyzer (AU510; made by Olympus Optical Co., Ltd, Japan) or clinical analysis kit of urea nitrogen (Urea nitrogen test wako; by Wako Pure Chemical Ind., Japan).

trachea = test: Passive Schultz-Dale reaction (bronchodilatory effects), relaxation of sensitized trachea strips; parameters: species or system guinea pig (Hartley male); conditions: Cavia porcellus; sensitized guinea pig trachea, EWA 1 μg/ml, 37° C.; read-out: Passive S-D reaction IC50 (concentration of 50% relaxation rate)
Procedure: Guinea pigs were passively sensitized as follows. […] After 24 hours, the guinea pigs were stunned and exsanguinated, and then trachea was excised. The zig-zag strips of the trachea were prepared by the method of Emmerson and Mackay [J. Pharm. […] After the contraction curves reached plateau the compounds were successively added in order to get cumulative concentration-relaxation curves.

[4] = tested on: Platelet Activating Factor (PAF)-induced mortality; test: Inhibition of Platelet Activating Factor (PAF)-induced mortality; type: in vivo, mouse (male dd mice); conditions: Mus musculus, 2 h, oral, mice, one hour before PAF 40 μg/kg i.v., p<0.05 vs control, read-out: PAF-induced mortality inhibition, minimum effective dose (MED)
Procedure: The experiment was performed by a minor modification of method of Carlson et al. [Agents and Actions, 21, 379 (1987)]. Groups each consisting of 10 male dd mice (weighing 28 to 32 g) were used, and 100 mg/kg of test compound or a saline (control) was orally administrated. One hour after the administration of test compound, 40 μg/kg of PAF (manufactured by Avanti Polar Lipids Co., Ltd.) was intravenously administered. Two hours after PAF injection, the mortality rate of the animals was observed.

[5] = relative value for control (1.00), read-out: Na+/K+
[6] = relative value for control, read-out: Excretion of K+
[7] = relative value for control, read-out: Excretion of Na+
[8] = relative value for control, read-out: Urine volume

Row | SMILES | Minimum lethal dose (MLD) [1] | response vs control in vivo at 25 mg/kg [2, 5] | response vs control in vivo at 25 mg/kg [2, 6] | response vs control in vivo at 25 mg/kg [2, 7] | response vs control in vivo at 25 mg/kg [2, 8] | Creatinine in serum, glycerol treated, test compound administrated [3] | Urea nitrogen in serum, glycerol treated, test compound administrated [3] | IC50 (trachea) | minimal effective dose [4] | other results
1 | CCCN1C(=O)N2CC(C)(C)N=C2c2[nH]c(C3CCCC3)nc21 [14 Sa] | > 300 mg/kg | 200% | 31% | 162% | 145% | 2.62 ± 0.40 mg/dL | 94.8 ± 14.3 mg/dL | 11 µM | 100 mg/kg | response vs control in vivo at 6.25 mg/kg [2, 5]: 123%; response vs control in vivo at 6.25 mg/kg [2, 6]: 43%; response vs control in vivo at 6.25 mg/kg [2, 7]: 75%; response vs control in vivo at 6.25 mg/kg [2, 8]: 113%
2 | CCCN1C(=O)N2CCN=C2c2c1ncn2C [Compound 1, 1-Methyl-4-n-propyl-1,4,7,8-tetrahydro-5H-imidazo[2,1-i]purin-5-one] | > 300 mg/kg |  |  |  |  | 1.94 ± 0.16 mg/dL |  | 0.003 µM | > 100 mg/kg | 
3 | NS(=O)(=O)c1cc(C(=O)O)c(NCc2ccco2)cc1Cl [Furosemide, reference compound] |  | 107% |  |  | 75% | 4.17 ± 0.41 mg/dL | 150.3 ± 13.7 mg/dL |  |  | 
4 | Cn1c(=O)c2[nH]cnc2n(C)c1=O [Aminophylline, reference compound] |  |  |  |  |  | 1.72 ± 0.07 mg/dL | 30.6 ± 2.0 mg/dL |  |  | 
5 | CCCN1C(=O)N2C(=NCC2CC)c2[nH]c(C3CCCC3)nc21 (centres unmarked) [18 Sa] | > 300 mg/kg | 120% | 37% | 65% | 92% | 2.85 ± 0.33 mg/dL | 101.2 ± 9.9 mg/dL |  |  | 
6 | CCCN1C(=O)N2C(=NCC2C)c2[nH]c(C3CCCC3)nc21 (centres unmarked) [19 Sa] | > 300 mg/kg | 143% | 31% | 87% | 111% |  |  |  |  | 
7 | CCCN1C(=O)N2CC(C)N=C2c2[nH]c(C3CCCC3)nc21 (centres unmarked) [16 Sa] |  |  |  |  |  | 2.38 ± 0.24 mg/dL | 80.9 ± 9.5 mg/dL |  |  | response vs control in vivo at 1.6 mg/kg [2, 5]: 152%; response vs control in vivo at 1.6 mg/kg [2, 6]: 31%; response vs control in vivo at 1.6 mg/kg [2, 7]: 99%; response vs control in vivo at 1.6 mg/kg [2, 8]: 80%
8 | CCCN1C(=O)N2CC(Cc3ccccc3)N=C2c2[nH]c(C3CCCC3)nc21 (centres unmarked) [12 Sa] | > 300 mg/kg |  |  |  |  |  |  |  |  | response vs control in vivo at 1.6 mg/kg [2, 5]: 152%; response vs control in vivo at 1.6 mg/kg [2, 6]: 33%; response vs control in vivo at 1.6 mg/kg [2, 7]: 102%; response vs control in vivo at 1.6 mg/kg [2, 8]: 159%
9 | CCCC1CN2C(=O)N(CCC)c3nc(C4CCCC4)[nH]c3C2=N1 (centres unmarked) [17 Sa] | > 300 mg/kg |  |  |  |  | 2.35 ± 0.11 mg/dL | 88.0 ± 4.9 mg/dL |  |  | response vs control in vivo at 6.25 mg/kg [2, 5]: 291%; response vs control in vivo at 6.25 mg/kg [2, 6]: 18%; response vs control in vivo at 6.25 mg/kg [2, 7]: 158%; response vs control in vivo at 6.25 mg/kg [2, 8]: 138%
10 | O=C1N2CCN=C2c2[nH]cnc2N1Cc1ccccc1 [Compound 9, 4-Benzyl-1,4,7,8-tetrahydro-5H-imidazo[2,1-i]purin-5-one] |  |  |  |  |  |  |  | > 40 µM | 100 mg/kg | 
11 | CCCN1C(=O)N2CC(CC)N=C2c2c1ncn2C (centres unmarked) [Compound 4, 8-Ethyl-1-methyl-4-n-propyl-1,4,7,8-tetrahydro-5H-imidazo[2,1-i]purin-5-one] | > 300 mg/kg |  |  |  |  |  |  | 0.036 µM | > 100 mg/kg | 
12 | CCCN1C(=O)N2CCN=C2c2c1nc(C1CCCC1)n2C [Compound 7, 2-Cyclopentyl-1-methyl-4-n-propyl-1,4,7,8-tetrahydro-5H-imidazo[2,1-i]purin-5-one] |  | 137% | 56% | 114% | 128% | 1.70 ± 0.17 mg/dL | 64.3 ± 7.1 mg/dL | 8.1 µM | > 100 mg/kg | 
13 | Cn1cnc2nc3n(c(=O)c21)CCCC3 [Compound 25, 1-Methyl-1,5,6,7,8,10-hexahydropyrido[1,2-a]purin-10-one] | > 300 mg/kg |  |  |  |  |  |  |  |  | 
14 | O=C1N2CCN=C2c2[nH]cnc2N1Cc1ccccc1 [9 Sa] | > 300 mg/kg | 126% | 31% | 65% | 88% |  |  |  |  | 
15 | CCCN1C(=O)N2C(=NCC2c2ccccc2)c2[nH]c(C3CCCC3)nc21 (centres unmarked) [11 Sa] | > 300 mg/kg |  |  |  |  |  |  |  |  | 
16 | O=c1c2[nH]cnc2nc2n1CCCC2 [Compound 24, 1,5,6,7,8,10-Hexahydropyrido[1,2-a]purin-10-one] | > 300 mg/kg |  |  |  |  |  |  |  |  | 
17 | CCCN1C(=O)N2CC(c3ccccc3)N=C2c2[nH]c(C3CCCC3)nc21 (centres unmarked) [15 Sa] | > 300 mg/kg | 151% | 26% | 90% | 95% | 2.34 ± 0.12 mg/dL | 101.8 ± 11.8 mg/dL | > 40 µM | 100 mg/kg | response vs control in vivo at 6.25 mg/kg [2, 5]: 232%; response vs control in vivo at 6.25 mg/kg [2, 6]: 9%; response vs control in vivo at 6.25 mg/kg [2, 7]: 153%; response vs control in vivo at 6.25 mg/kg [2, 8]: 137%
18 | CCCN1C(=O)N2CCN=C2c2[nH]c(C3CCCC3)nc21 [Compound 6, 2-Cyclopentyl-4-n-propyl-1,4,7,8-tetrahydro-5H-imidazo[2,1-i]purin-5-one] |  |  |  |  |  | 1.81 ± 0.12 mg/dL |  | > 40 µM | 50 mg/kg | response vs control in vivo at 1.6 mg/kg [2, 5]: 155%; response vs control in vivo at 1.6 mg/kg [2, 6]: 30%; response vs control in vivo at 1.6 mg/kg [2, 7]: 102%; response vs control in vivo at 1.6 mg/kg [2, 8]: 121%
19 | CCCN1C(=O)N2CC(CC)N=C2c2[nH]c(C3CCCC3)nc21 (centres unmarked) [Compound 8, 2-Cyclopentyl-8-ethyl-4-n-propyl-1,4,7,8-tetrahydro-5H-imidazo[2,1-i]purin-5-one] |  |  |  |  |  | 3.17 ± 0.32 mg/dL | 121.2 ± 9.0 mg/dL | 72 µM |  | response vs control in vivo at 6.25 mg/kg [2, 5]: 145%; response vs control in vivo at 6.25 mg/kg [2, 6]: 1%; response vs control in vivo at 6.25 mg/kg [2, 7]: 46%; response vs control in vivo at 6.25 mg/kg [2, 8]: 42%
